According to the NIST ThermoML archive (doi:10.1021/je060271a):
± gives the expanded uncertainty stated by the source.

Conditions: 323.15 K, Liquid, Vibrating tube method

## CCCCCC(=O)OCC(COC(=O)CCCCC)(COC(=O)CCCCC)COC(=O)CCCCC [pentaerythritol tetrahexanoate]
616.8 kPa
  mass density: 973.1 ± 1.2 kg/m3
618.6 kPa
  mass density: 973.1 ± 1.2 kg/m3
620.6 kPa
  mass density: 973.1 ± 1.2 kg/m3
623.1 kPa
  mass density: 973.3 ± 1.2 kg/m3
625.3 kPa
  mass density: 973.2 ± 1.2 kg/m3
627.3 kPa
  mass density: 973.1 ± 1.2 kg/m3
629.2 kPa
  mass density: 973.2 ± 1.2 kg/m3
631.2 kPa
  mass density: 973.1 ± 1.2 kg/m3
633 kPa
  mass density: 973.1 ± 1.2 kg/m3
634.7 kPa
  mass density: 973.1 ± 1.2 kg/m3
637.3 kPa
  mass density: 973.1 ± 1.2 kg/m3
639.4 kPa
  mass density: 973.1 ± 1.2 kg/m3
641.7 kPa
  mass density: 973 ± 1.2 kg/m3
643.9 kPa
  mass density: 973 ± 1.2 kg/m3
659.4 kPa
  mass density: 973.1 ± 1.2 kg/m3
662 kPa
  mass density: 973.2 ± 1.2 kg/m3
664.3 kPa
  mass density: 973.2 ± 1.2 kg/m3
666.7 kPa
  mass density: 973.1 ± 1.2 kg/m3
668.8 kPa
  mass density: 973.2 ± 1.2 kg/m3
671.2 kPa
  mass density: 973.2 ± 1.2 kg/m3
674 kPa
  mass density: 973.1 ± 1.2 kg/m3
675.9 kPa
  mass density: 973.1 ± 1.2 kg/m3
678.5 kPa
  mass density: 973.1 ± 1.2 kg/m3
681.8 kPa
  mass density: 973.2 ± 1.2 kg/m3
684.1 kPa
  mass density: 973.2 ± 1.2 kg/m3
699.5 kPa
  mass density: 973.1 ± 1.2 kg/m3
702.1 kPa
  mass density: 973.1 ± 1.2 kg/m3
704.4 kPa
  mass density: 973.1 ± 1.2 kg/m3
707.2 kPa
  mass density: 973.2 ± 1.2 kg/m3
709.1 kPa
  mass density: 973.2 ± 1.2 kg/m3
712 kPa
  mass density: 973.1 ± 1.2 kg/m3
741.4 kPa
  mass density: 973.1 ± 1.2 kg/m3
744 kPa
  mass density: 973.3 ± 1.2 kg/m3
746.6 kPa
  mass density: 973.1 ± 1.2 kg/m3
749.6 kPa
  mass density: 973.2 ± 1.2 kg/m3
752.5 kPa
  mass density: 973.1 ± 1.2 kg/m3
755.1 kPa
  mass density: 973.3 ± 1.2 kg/m3
757.9 kPa
  mass density: 973.2 ± 1.2 kg/m3
760.3 kPa
  mass density: 973.2 ± 1.2 kg/m3
765.9 kPa
  mass density: 973.2 ± 1.2 kg/m3
768.5 kPa
  mass density: 973.2 ± 1.2 kg/m3
772.1 kPa
  mass density: 973.2 ± 1.2 kg/m3
774.9 kPa
  mass density: 973.1 ± 1.2 kg/m3
777.5 kPa
  mass density: 973.3 ± 1.2 kg/m3
780 kPa
  mass density: 973.2 ± 1.2 kg/m3
783.1 kPa
  mass density: 973.2 ± 1.2 kg/m3
785.3 kPa
  mass density: 973.1 ± 1.2 kg/m3
788.3 kPa
  mass density: 973.3 ± 1.2 kg/m3
791.4 kPa
  mass density: 973.2 ± 1.2 kg/m3
794.4 kPa
  mass density: 973.2 ± 1.2 kg/m3
796 kPa
  mass density: 973.2 ± 1.2 kg/m3
798.4 kPa
  mass density: 973.3 ± 1.2 kg/m3
815.2 kPa
  mass density: 973.3 ± 1.2 kg/m3
817.7 kPa
  mass density: 973.3 ± 1.2 kg/m3
821 kPa
  mass density: 973.3 ± 1.2 kg/m3
824.1 kPa
  mass density: 973.4 ± 1.2 kg/m3
827.1 kPa
  mass density: 973.3 ± 1.2 kg/m3
830.2 kPa
  mass density: 973.2 ± 1.2 kg/m3
833.5 kPa
  mass density: 973.3 ± 1.2 kg/m3
836.8 kPa
  mass density: 973.2 ± 1.2 kg/m3
839.5 kPa
  mass density: 973.3 ± 1.2 kg/m3
842.8 kPa
  mass density: 973.2 ± 1.2 kg/m3
845.5 kPa
  mass density: 973.2 ± 1.2 kg/m3
849.1 kPa
  mass density: 973.3 ± 1.2 kg/m3
851.9 kPa
  mass density: 973.2 ± 1.2 kg/m3
855.5 kPa
  mass density: 973.3 ± 1.2 kg/m3
871.5 kPa
  mass density: 973.2 ± 1.2 kg/m3
875.2 kPa
  mass density: 973.2 ± 1.2 kg/m3
877.8 kPa
  mass density: 973.2 ± 1.2 kg/m3
880.9 kPa
  mass density: 973.3 ± 1.2 kg/m3
884.5 kPa
  mass density: 973.3 ± 1.2 kg/m3
887.3 kPa
  mass density: 973.2 ± 1.2 kg/m3
890.8 kPa
  mass density: 973.2 ± 1.2 kg/m3
894.6 kPa
  mass density: 973.2 ± 1.2 kg/m3
897.6 kPa
  mass density: 973.2 ± 1.2 kg/m3
900.3 kPa
  mass density: 973.2 ± 1.2 kg/m3
904 kPa
  mass density: 973.3 ± 1.2 kg/m3
906.8 kPa
  mass density: 973.3 ± 1.2 kg/m3
910.8 kPa
  mass density: 973.3 ± 1.2 kg/m3
913.5 kPa
  mass density: 973.3 ± 1.2 kg/m3
920.1 kPa
  mass density: 973.2 ± 1.2 kg/m3
926.9 kPa
  mass density: 973.3 ± 1.2 kg/m3
930.6 kPa
  mass density: 973.3 ± 1.2 kg/m3
933.3 kPa
  mass density: 973.3 ± 1.2 kg/m3
936.1 kPa
  mass density: 973.2 ± 1.2 kg/m3
940 kPa
  mass density: 973.3 ± 1.2 kg/m3
942.9 kPa
  mass density: 973.4 ± 1.2 kg/m3
947.1 kPa
  mass density: 973.3 ± 1.2 kg/m3
950.7 kPa
  mass density: 973.3 ± 1.2 kg/m3
953.5 kPa
  mass density: 973.3 ± 1.2 kg/m3
957 kPa
  mass density: 973.4 ± 1.2 kg/m3
960.8 kPa
  mass density: 973.3 ± 1.2 kg/m3
963.6 kPa
  mass density: 973.4 ± 1.2 kg/m3
968.1 kPa
  mass density: 973.2 ± 1.2 kg/m3
971.9 kPa
  mass density: 973.2 ± 1.2 kg/m3
975.6 kPa
  mass density: 973.4 ± 1.2 kg/m3
978.9 kPa
  mass density: 973.4 ± 1.2 kg/m3
983 kPa
  mass density: 973.3 ± 1.2 kg/m3
987 kPa
  mass density: 973.3 ± 1.2 kg/m3
991 kPa
  mass density: 973.4 ± 1.2 kg/m3
995 kPa
  mass density: 973.4 ± 1.2 kg/m3
999.9 kPa
  mass density: 973.3 ± 1.2 kg/m3
1003.3 kPa
  mass density: 973.4 ± 1.2 kg/m3
1007 kPa
  mass density: 973.4 ± 1.2 kg/m3
1011.7 kPa
  mass density: 973.4 ± 1.2 kg/m3
1016 kPa
  mass density: 973.4 ± 1.2 kg/m3
1062.4 kPa
  mass density: 973.4 ± 1.2 kg/m3
1065.9 kPa
  mass density: 973.3 ± 1.2 kg/m3
1069.5 kPa
  mass density: 973.4 ± 1.2 kg/m3
1073.9 kPa
  mass density: 973.3 ± 1.2 kg/m3
1077.3 kPa
  mass density: 973.4 ± 1.2 kg/m3
1082 kPa
  mass density: 973.5 ± 1.2 kg/m3
1085.7 kPa
  mass density: 973.4 ± 1.2 kg/m3
1090.4 kPa
  mass density: 973.5 ± 1.2 kg/m3
1094.2 kPa
  mass density: 973.5 ± 1.2 kg/m3
1099 kPa
  mass density: 973.5 ± 1.2 kg/m3
1103 kPa
  mass density: 973.5 ± 1.2 kg/m3
1128.6 kPa
  mass density: 973.4 ± 1.2 kg/m3
1132.2 kPa
  mass density: 973.4 ± 1.2 kg/m3
1137.1 kPa
  mass density: 973.4 ± 1.2 kg/m3
1140.7 kPa
  mass density: 973.5 ± 1.2 kg/m3
1145.6 kPa
  mass density: 973.5 ± 1.2 kg/m3
1149.6 kPa
  mass density: 973.5 ± 1.2 kg/m3
1154.3 kPa
  mass density: 973.5 ± 1.2 kg/m3
1159 kPa
  mass density: 973.5 ± 1.2 kg/m3
1163.8 kPa
  mass density: 973.5 ± 1.2 kg/m3
1243.7 kPa
  mass density: 973.6 ± 1.2 kg/m3
1248 kPa
  mass density: 973.6 ± 1.2 kg/m3
1253.4 kPa
  mass density: 973.5 ± 1.2 kg/m3
1258.3 kPa
  mass density: 973.4 ± 1.2 kg/m3
1263.5 kPa
  mass density: 973.5 ± 1.2 kg/m3
1269.2 kPa
  mass density: 973.5 ± 1.2 kg/m3
1273.9 kPa
  mass density: 973.7 ± 1.2 kg/m3
1278.6 kPa
  mass density: 973.5 ± 1.2 kg/m3
1284.5 kPa
  mass density: 973.6 ± 1.2 kg/m3
1289.2 kPa
  mass density: 973.6 ± 1.2 kg/m3
1294.7 kPa
  mass density: 973.5 ± 1.2 kg/m3
1299.6 kPa
  mass density: 973.6 ± 1.2 kg/m3
1305.5 kPa
  mass density: 973.5 ± 1.2 kg/m3
1310 kPa
  mass density: 973.5 ± 1.2 kg/m3
1315.4 kPa
  mass density: 973.5 ± 1.2 kg/m3
1319.9 kPa
  mass density: 973.5 ± 1.2 kg/m3
1325.8 kPa
  mass density: 973.5 ± 1.2 kg/m3
1331.7 kPa
  mass density: 973.6 ± 1.2 kg/m3
1411.8 kPa
  mass density: 973.6 ± 1.2 kg/m3
